Results published in ChEMBL document CHEMBL3822364, “Synthesis, characterization and antimicrobial activity of novel Schiff base tethered boronate esters of 1,2-O-isopropylidene-α-d-xylofuranose” (2016).
≈ marks a conversion by molar mass, not a printed value. Calls of active or inactive are those of the source. The calls are words filed in the database; no cut-off is given here.

Legend:
Streptococcus mutans [1] = assay: Antibacterial activity against Streptococcus mutans MTCC 497 measured after 24 hrs by NCCL protocol based broth dilution method; type: functional
Micrococcus luteus [2] = assay: Antibacterial activity against Micrococcus luteus MTCC 106 assessed as zone of inhibition at 100 ug/well measured after 24 hrs by agar well diffusion method; type: functional; conditions: MTCC 106, 24 h, read-out: DIZ
Aspergillus fumigatus [3] = assay: Antifungal activity against Aspergillus fumigatus MTCC 343 assessed as zone of inhibition at 100 ug/well measured after 48 hrs by agar well diffusion method; type: functional; conditions: MTCC 343, 48 h, read-out: DIZ
Salmonella typhi [4] = assay: Antibacterial activity against Salmonella typhi assessed as zone of inhibition at 100 ug/well measured after 24 hrs by agar well diffusion method; type: functional, Salmonella enterica subsp. enterica serovar Typhi; conditions: Salmonella enterica, read-out: DIZ
Salmonella typhi [5] = assay: Antibacterial activity against Salmonella typhi measured after 24 hrs by NCCL protocol based broth dilution method; type: functional, Salmonella enterica subsp. enterica serovar Typhi
Salmonella paratyphi [6] = assay: Antibacterial activity against Salmonella paratyphi measured after 24 hrs by NCCL protocol based broth dilution method; type: functional, Salmonella enterica subsp. enterica serovar Paratyphi A
Streptococcus mutans [7] = assay: Antibacterial activity against Streptococcus mutans MTCC 497 assessed as zone of inhibition at 100 ug/well measured after 24 hrs by agar well diffusion method; type: functional; conditions: MTCC 497, 24 h, read-out: DIZ
Salmonella paratyphi [8] = assay: Antibacterial activity against Salmonella paratyphi assessed as zone of inhibition at 100 ug/well measured after 24 hrs by agar well diffusion method; type: functional, Salmonella enterica subsp. enterica serovar Paratyphi A; conditions: Salmonella enterica, read-out: DIZ
Staphylococcus aureus [9] = assay: Antibacterial activity against Staphylococcus aureus MTCC 3160 measured after 24 hrs by NCCL protocol based broth dilution method; type: functional
Candida albicans [10] = assay: Antifungal activity against Candida albicans MTCC 3017 measured after 48 hrs by NCCL protocol based broth dilution method; type: functional
Klebsiella pneumoniae [11] = assay: Antibacterial activity against Klebsiella pneumoniae MTCC 3384 measured after 24 hrs by NCCL protocol based broth dilution method; type: functional
Candida albicans [12] = assay: Antifungal activity against Candida albicans MTCC 3017 assessed as zone of inhibition at 100 ug/well measured after 48 hrs by agar well diffusion method; type: functional; conditions: MTCC 3017, 48 h, read-out: DIZ
Staphylococcus aureus [13] = assay: Antibacterial activity against Staphylococcus aureus MTCC 3160 assessed as zone of inhibition at 100 ug/well measured after 24 hrs by agar well diffusion method; type: functional; conditions: MTCC 3160, 24 h, read-out: DIZ
Aspergillus fumigatus [14] = assay: Antifungal activity against Aspergillus fumigatus MTCC 343 measured after 48 hrs by NCCL protocol based broth dilution method; type: functional
Klebsiella pneumoniae [15] = assay: Antibacterial activity against Klebsiella pneumoniae MTCC 3384 assessed as zone of inhibition at 100 ug/well measured after 24 hrs by agar well diffusion method; type: functional; conditions: MTCC 3384, 24 h, read-out: DIZ
Micrococcus luteus [16] = assay: Antibacterial activity against Micrococcus luteus MTCC 106 measured after 24 hrs by NCCL protocol based broth dilution method; type: functional

Cc1ccc(/N=C/c2cccc(B3OC[C@H]4O[C@@H]5OC(C)(C)O[C@@H]5[C@H]4O3)c2)cc1
MIC (Streptococcus mutans [1]; MTCC 497, 24 h): 250 µg/mL (≈ 636 µM)
zone of inhibition at 100 µg/disc (Micrococcus luteus [2]): 12 mm
zone of inhibition at 100 µg/disc (Aspergillus fumigatus [3]): 14 mm
zone of inhibition at 100 µg/disc (Salmonella typhi [4]): 20 mm
MIC (Salmonella typhi [5]; Salmonella enterica): 125 µg/mL (≈ 318 µM)
MIC (Salmonella paratyphi [6]; Salmonella enterica): 500 µg/mL (≈ 1270 µM)
zone of inhibition at 100 µg/disc (Streptococcus mutans [7]): 13 mm
zone of inhibition at 100 µg/disc (Salmonella paratyphi [8]): 12 mm
MIC (Staphylococcus aureus [9]; MTCC 3160, 24 h): 125 µg/mL (≈ 318 µM)
MIC (Candida albicans [10]; MTCC 3017, 48 h): 250 µg/mL (≈ 636 µM)
MIC (Klebsiella pneumoniae [11]; MTCC 3384, 24 h): 125 µg/mL (≈ 318 µM)
zone of inhibition at 100 µg/disc (Candida albicans [12]): 17 mm
zone of inhibition at 100 µg/disc (Staphylococcus aureus [13]): 13 mm
MIC (Aspergillus fumigatus [14]; MTCC 343, 48 h): 125 µg/mL (≈ 318 µM)
zone of inhibition at 100 µg/disc (Klebsiella pneumoniae [15]): 20 mm
MIC (Micrococcus luteus [16]; MTCC 106, 24 h): 250 µg/mL (≈ 636 µM)

OC(Cn1cncn1)(Cn1cncn1)c1ccc(F)cc1F [FLUCONAZOLE]
MIC (Candida albicans [10]; MTCC 3017, 48 h): 62.5 µg/mL (≈ 204 µM)
zone of inhibition at 100 µg/disc (Candida albicans [12]): 18 mm

CC1(C)O[C@H]2O[C@@H]3COB(c4ccc(/C=N/c5ccc(F)cc5)cc4)O[C@@H]3[C@H]2O1
MIC (Streptococcus mutans [1]; MTCC 497, 24 h): 31.2 µg/mL (≈ 78.7 µM)
zone of inhibition at 100 µg/disc (Micrococcus luteus [2]): 15 mm
zone of inhibition at 100 µg/disc (Aspergillus fumigatus [3]): 0 mm
zone of inhibition at 100 µg/disc (Salmonella typhi [4]): 20 mm
MIC (Salmonella typhi [5]; Salmonella enterica): 62.5 µg/mL (≈ 157 µM)
MIC (Salmonella paratyphi [6]; Salmonella enterica): 31.2 µg/mL (≈ 78.7 µM)
zone of inhibition at 100 µg/disc (Streptococcus mutans [7]): 21 mm
zone of inhibition at 100 µg/disc (Salmonella paratyphi [8]): 22 mm
MIC (Staphylococcus aureus [9]; MTCC 3160, 24 h): 62.5 µg/mL (≈ 157 µM)
MIC (Candida albicans [10]; MTCC 3017, 48 h): 125 µg/mL (≈ 315 µM)
MIC (Klebsiella pneumoniae [11]; MTCC 3384, 24 h): 31.2 µg/mL (≈ 78.7 µM)
zone of inhibition at 100 µg/disc (Candida albicans [12]): 16 mm
zone of inhibition at 100 µg/disc (Staphylococcus aureus [13]): 18 mm
MIC (Aspergillus fumigatus [14]; MTCC 343, 48 h): 250 µg/mL (≈ 629 µM)
zone of inhibition at 100 µg/disc (Klebsiella pneumoniae [15]): 21 mm
MIC (Micrococcus luteus [16]; MTCC 106, 24 h): 62.5 µg/mL (≈ 157 µM)

CC1(C)O[C@H]2O[C@@H]3COB(c4ccc(/C=N/c5ccccc5)cc4)O[C@@H]3[C@H]2O1
MIC (Streptococcus mutans [1]; MTCC 497, 24 h): 62.5 µg/mL (≈ 165 µM)
zone of inhibition at 100 µg/disc (Micrococcus luteus [2]): 14 mm
zone of inhibition at 100 µg/disc (Aspergillus fumigatus [3]): 0 mm
zone of inhibition at 100 µg/disc (Salmonella typhi [4]): 20 mm
MIC (Salmonella typhi [5]; Salmonella enterica): 62.5 µg/mL (≈ 165 µM)
MIC (Salmonella paratyphi [6]; Salmonella enterica): 500 µg/mL (≈ 1320 µM)
zone of inhibition at 100 µg/disc (Streptococcus mutans [7]): 21 mm
zone of inhibition at 100 µg/disc (Salmonella paratyphi [8]): 0 mm
MIC (Staphylococcus aureus [9]; MTCC 3160, 24 h): 125 µg/mL (≈ 330 µM)
MIC (Candida albicans [10]; MTCC 3017, 48 h): 125 µg/mL (≈ 330 µM)
MIC (Klebsiella pneumoniae [11]; MTCC 3384, 24 h): 62.5 µg/mL (≈ 165 µM)
zone of inhibition at 100 µg/disc (Candida albicans [12]): 11 mm
zone of inhibition at 100 µg/disc (Staphylococcus aureus [13]): 16 mm
MIC (Aspergillus fumigatus [14]; MTCC 343, 48 h): 500 µg/mL (≈ 1320 µM)
zone of inhibition at 100 µg/disc (Klebsiella pneumoniae [15]): 21 mm
MIC (Micrococcus luteus [16]; MTCC 106, 24 h): 250 µg/mL (≈ 659 µM)

CC1(C)O[C@H]2O[C@@H]3COC(c4ccc(C=O)cc4)O[C@@H]3[C@H]2O1 (stereo partly specified)
MIC (Streptococcus mutans [1]): inactive
zone of inhibition at 100 µg/disc (Micrococcus luteus [2]): 0 mm
zone of inhibition at 100 µg/disc (Aspergillus fumigatus [3]): 0 mm
zone of inhibition at 100 µg/disc (Salmonella typhi [4]): 0 mm
MIC (Salmonella typhi [5]; Salmonella enterica subsp. enterica serovar Typhi): inactive
MIC (Salmonella paratyphi [6]; Salmonella enterica subsp. enterica serovar Paratyphi A): inactive
zone of inhibition at 100 µg/disc (Streptococcus mutans [7]): 0 mm
zone of inhibition at 100 µg/disc (Salmonella paratyphi [8]): 0 mm
MIC (Staphylococcus aureus [9]): inactive
MIC (Candida albicans [10]): inactive
MIC (Klebsiella pneumoniae [11]): inactive
zone of inhibition at 100 µg/disc (Candida albicans [12]): 0 mm
zone of inhibition at 100 µg/disc (Staphylococcus aureus [13]): 0 mm
MIC (Aspergillus fumigatus [14]): inactive
zone of inhibition at 100 µg/disc (Klebsiella pneumoniae [15]): 0 mm
MIC (Micrococcus luteus [16]): inactive

O=[N+]([O-])c1ccc(O)c(/C=N/c2cccc(B(O)O)c2)c1
MIC (Streptococcus mutans [1]; MTCC 497, 24 h): 125 µg/mL (≈ 437 µM)
zone of inhibition at 100 µg/disc (Micrococcus luteus [2]): 0 mm
zone of inhibition at 100 µg/disc (Aspergillus fumigatus [3]): 0 mm
zone of inhibition at 100 µg/disc (Salmonella typhi [4]): 11 mm
MIC (Salmonella typhi [5]; Salmonella enterica): 500 µg/mL (≈ 1750 µM)
MIC (Salmonella paratyphi [6]; Salmonella enterica): 500 µg/mL (≈ 1750 µM)
zone of inhibition at 100 µg/disc (Streptococcus mutans [7]): 9 mm
zone of inhibition at 100 µg/disc (Salmonella paratyphi [8]): 0 mm
MIC (Staphylococcus aureus [9]; MTCC 3160, 24 h): 500 µg/mL (≈ 1750 µM)
MIC (Candida albicans [10]; MTCC 3017, 48 h): 500 µg/mL (≈ 1750 µM)
MIC (Klebsiella pneumoniae [11]; MTCC 3384, 24 h): 500 µg/mL (≈ 1750 µM)
zone of inhibition at 100 µg/disc (Candida albicans [12]): 0 mm
zone of inhibition at 100 µg/disc (Staphylococcus aureus [13]): 8 mm
MIC (Aspergillus fumigatus [14]; MTCC 343, 48 h): 500 µg/mL (≈ 1750 µM)
zone of inhibition at 100 µg/disc (Klebsiella pneumoniae [15]): 0 mm
MIC (Micrococcus luteus [16]; MTCC 106, 24 h): 250 µg/mL (≈ 874 µM)

C[C@@H]1C[C@@H]([C@H](O)CC2CC(=O)NC(=O)C2)C(=O)[C@@H](C)C1 [CYCLOHEXIMIDE]
zone of inhibition at 100 µg/disc (Aspergillus fumigatus [3]): 25 mm
MIC (Aspergillus fumigatus [14]; MTCC 343, 48 h): 125 µg/mL (≈ 444 µM)

CN[C@@H]1[C@H](O[C@H]2[C@H](O[C@H]3[C@H](O)[C@@H](O)[C@H](N=C(N)N)[C@@H](O)[C@@H]3N=C(N)N)O[C@@H](C)[C@]2(O)C=O)O[C@@H](CO)[C@H](O)[C@H]1O.CN[C@@H]1[C@H](O[C@H]2[C@H](O[C@H]3[C@H](O)[C@@H](O)[C@H](N=C(N)N)[C@@H](O)[C@@H]3N=C(N)N)O[C@@H](C)[C@]2(O)C=O)O[C@@H](CO)[C@H](O)[C@H]1O.O=S(=O)(O)O.O=S(=O)(O)O.O=S(=O)(O)O [STREPTOMYCIN SULFATE]
MIC (Streptococcus mutans [1]; MTCC 497, 24 h): 31.2 µg/mL
zone of inhibition at 100 µg/disc (Micrococcus luteus [2]): 20 mm
zone of inhibition at 100 µg/disc (Salmonella typhi [4]): 25 mm
MIC (Salmonella typhi [5]; Salmonella enterica): 31.2 µg/mL
MIC (Salmonella paratyphi [6]; Salmonella enterica): 15.6 µg/mL
zone of inhibition at 100 µg/disc (Streptococcus mutans [7]): 26 mm
zone of inhibition at 100 µg/disc (Salmonella paratyphi [8]): 23 mm
MIC (Staphylococcus aureus [9]; MTCC 3160, 24 h): 15.6 µg/mL
MIC (Klebsiella pneumoniae [11]; MTCC 3384, 24 h): 31.2 µg/mL
zone of inhibition at 100 µg/disc (Staphylococcus aureus [13]): 26 mm
zone of inhibition at 100 µg/disc (Klebsiella pneumoniae [15]): 25 mm
MIC (Micrococcus luteus [16]; MTCC 106, 24 h): 31.2 µg/mL
